Assay in all cases: ≥ marks a high value that may be exact or a test limit, other limits are often not marked, values filed in µg/mL are converted to µM
For experiment [1], the system named is Candida albicans CCARM 14021.
The test system of experiment [2] is Candida albicans SC5314.
Experiment [3] concerns Candida albicans CCARM 14020.
Experiment [4] has as its system Candida albicans CCARM 14022.
Experiment [5] has as its system Kocuria rhizophila DSM 348.
Experiment [6] relates to Bacillus subtilis DSM 347.
The test system of experiment [7] is Franconibacter helveticus DSM 18396.
The test system of experiment [8] is Escherichia coli DH5alpha.
Experiment [9] has as its system Pseudomonas aeruginosa ATCC 13388.
Experiment [10] concerns Staphylococcus aureus ATCC 6538.
For experiment [11], the system named is Escherichia coli ATCC 11219.
Experiment [12] has as its system Salmonella enterica subsp. enterica serovar Typhimurium ATCC 14028.
The subject of experiment [13] is Klebsiella pneumoniae ATCC 10031.
For experiment [14], the system named is Lactobacillus acidophilus ATCC 53544.
The test system of experiment [15] is Streptococcus salivarius ATCC 27945.
Experiment [16] deals with Enterococcus faecalis ATCC 29212.
Experiment [17] concerns Limosilactobacillus fermentum A1753.
The subject of experiment [18] is Streptococcus sobrinus 6715.
In experiment [19] the test system is Streptococcus sanguinis ATCC 10556.
Experiment [20] has as its system Lacticaseibacillus casei ATCC 393.
Experiment [21] deals with Lactobacillus acidophilus ATCC 14931.
In experiment [22] the test system is Streptococcus gordonii ATCC 35105.
Experiment [23] deals with Limosilactobacillus fermentum ATCC 9338.
Experiment [24] concerns Streptococcus salivarius ATCC 13419.
Experiment [25] deals with Streptococcus sanguinis JCM 5708.
The subject of experiment [26] is Streptococcus gordonii DL1.
In experiment [27] the test system is Actinomyces naeslundii ATCC 12104.
The test system of experiment [28] is Streptococcus mutans UA159.
The subject of experiment [29] is Trichosporon beigelii KCTC 7707.
Experiment [30] has as its system Bacillus subtilis KCTC 1918.
The test system of experiment [31] is Pseudomonas aeruginosa KCTC 1637.
The test system of experiment [32] is Salmonella typhimurium KCTC 1926.
Experiment [33] relates to Staphylococcus epidermidis KCTC 3096.
Experiment [34] deals with Candida albicans TIMM 1768.
Experiment [35] deals with Pectobacterium carotovorum.

In brackets after ≈: the same amount, converted by molar mass. Several values for one entry are separate records, joined by “and”; a condition that tells them apart may be missing. Equal values may be shown once.

As for `CC(C)C[C@H](NC(=O)[C@H](C)N)C(=O)N[C@@H](CC(C)C)C(=O)N[C@@H](Cc1cnc[nH]1)C(=O)N[C@@H](Cc1cnc[nH]1)C(=O)NCC(=O)N[C@@H](Cc1ccc(O)cc1)C(=O)N[C@@H](CCCCN)C(=O)N[C@@H](CCCN=C(N)N)C(=O)N[C@@H](CCCCN)C(=O)N[C@@H](Cc1ccccc1)C(=O)N[C@@H](Cc1cnc[nH]1)C(N)=O` [ALLHHGYKRKFH], the minimum inhibitory concentration (MIC) – broadly, the lowest concentration that inhibits growth of the organism – amounted to 21.2 µM (≈ 32 µg/mL) in experiment [1], 15 µM (≈ 22.6 µg/mL) in [2], 7.51 µM (≈ 11.3 µg/mL) in [3] and 21.2 µM (≈ 32 µg/mL) in [4].
With `CC[C@H](C)[C@H](NC(=O)CN)C(=O)NCC(=O)N[C@@H](CCCCN)C(=O)N[C@@H](Cc1ccccc1)C(=O)N[C@@H](CC(C)C)C(=O)N[C@@H](Cc1cnc[nH]1)C(=O)N[C@@H](CO)C(=O)N[C@@H](C)C(=O)N[C@@H](CCCCN)C(=O)N[C@@H](CCCCN)C(=O)N[C@@H](Cc1ccccc1)C(=O)NCC(=O)N[C@@H](CCCCN)C(=O)N[C@@H](C)C(=O)N[C@@H](C)C(=O)N[C@H](C(=O)NCC(=O)N[C@@H](CCC(=O)O)C(=O)N[C@H](C(=O)N[C@@H](CCSC)C(=O)N[C@@H](CC(N)=O)C(=O)N[C@@H](CO)C(=O)O)[C@@H](C)CC)C(C)C` [GIGKFLHSAKKFGKAAVGEIMNS], the MIC in experiment [5] was 4 µM (≈ 9.56 µg/mL); in experiment [6], 16 µM (≈ 38.3 µg/mL); in experiment [7], ≥ 128 µM; in experiment [8] it was ≥ 128 µM.
On to `CC[C@H](C)[C@H](NC(=O)CN)C(=O)N[C@@H](Cc1cnc[nH]1)C(=O)N[C@@H](CC(=O)O)C(=O)N[C@H](C(=O)N[C@@H](CC(C)C)C(=O)N[C@@H](CCCCN)C(=O)N[C@@H](Cc1ccc(O)cc1)C(=O)NCC(=O)N[C@@H](C)C(=O)N1CCC[C@H]1C(=O)N[C@@H](CO)C(N)=O)[C@@H](C)CC` [GIHDILKYGAPS], for which the MIC in experiment [9] was ≥ 50 µM; in experiment [10] it was 20 µM (≈ 25.4 µg/mL); in experiment [11], 15 µM (≈ 19 µg/mL); in experiment [12], > 50 µM; in [13], 10 µM (≈ 12.7 µg/mL).
With `CC(C)C[C@H](NC(=O)CN)C(=O)N[C@@H](CC(C)C)C(=O)N[C@@H](Cc1c[nH]c2ccccc12)C(=O)N[C@@H](Cc1cnc[nH]1)C(=O)N[C@@H](CC(C)C)C(=O)N[C@@H](CC(C)C)C(=O)N[C@@H](Cc1cnc[nH]1)C(=O)N[C@@H](Cc1cnc[nH]1)C(=O)N[C@@H](CC(C)C)C(=O)N[C@@H](CC(C)C)C(=O)N[C@@H](Cc1cnc[nH]1)C(N)=O` [GLLWHLLHHLLH], the minimal inhibitory concentration (MIC) in experiment [14] is 3.14 µM and 4.92 µM; in [15], 2.47 µM and 4.92 µM; in [10] it was 7.17 µM and 14.3 µM; in experiment [16], 25.1 µM and 50.2 µM; in [17], 2.02 µM and 3.14 µM; in experiment [18] it was 10.7 µM and 4.03 µM and 8.06 µM. For the same molecule, the MIC in experiment [19] was 5.37 µM (≈ 7.99 µg/mL); in experiment [20] it was 2.69 µM and 3.14 µM and 6.27 µM; in experiment [21] it was 2.69 µM (≈ 4 µg/mL); in [22], 10.7 µM and 21.5 µM; in experiment [23] it was 2.69 µM (≈ 4 µg/mL); in experiment [24], 5.37 µM (≈ 7.99 µg/mL). In addition, the MIC in experiment [25] was 5.37 µM and 10.7 µM; in [26], 5.37 µM (≈ 7.99 µg/mL); in experiment [27] it was 2.69 µM (≈ 4 µg/mL); in experiment [28], 4.5 µM and 4.48 µM and 6.27 µM.
For `CC[C@H](C)[C@H](NC(=O)CNC(=O)[C@@H](NC(=O)[C@H](CCCCN)NC(=O)[C@H](CCCCN)NC(=O)[C@H](Cc1ccccc1)NC(=O)[C@H](CC(C)C)NC(=O)[C@H](CCCCN)NC(=O)[C@H](Cc1c[nH]c2ccccc12)NC(=O)[C@@H](N)CCCCN)[C@@H](C)CC)C(=O)NCC(=O)N[C@@H](CCCCN)C(=O)N[C@@H](Cc1ccccc1)C(=O)N[C@@H](CC(C)C)C(=O)N[C@@H](CCCCN)C(=O)N[C@@H](CCCCN)C(=O)N[C@@H](CCCCN)C(N)=O` [KWKLFKKIGIGKFLKKK], the MIC in experiment [29] is 6.25 µM (≈ 13.1 µg/mL); in [30], 3.12 µM (≈ 6.52 µg/mL); in experiment [31], 2.21 µM (≈ 4.61 µg/mL); in experiment [32], 0.19 µM (≈ 0.397 µg/mL); in experiment [33], 3.12 µM (≈ 6.52 µg/mL); in experiment [34], 12.5 µM (≈ 26.1 µg/mL).
In the case of `CC(C)C[C@H](NC(=O)[C@H](CC(N)=O)NC(=O)[C@H](Cc1ccc(O)cc1)NC(=O)[C@@H]1CCCN1C(=O)[C@@H]1CCCN1)C(=O)N[C@@H](CC(N)=O)C(=O)N[C@@H](CO)C(=O)N[C@@H](Cc1cnc[nH]1)C(=O)N[C@H](C(=O)N[C@@H](CCC(N)=O)C(=O)N[C@@H](CCC(=O)O)C(=O)N[C@@H](Cc1ccc(O)cc1)C(=O)N[C@@H](CO)C(=O)N[C@@H](CCCCN)C(=O)N1CCC[C@H]1C(=O)N[C@@H](CCC(=O)O)C(=O)N[C@@H](CC(=O)O)C(=O)N[C@H](C(=O)N[C@@H](Cc1ccccc1)C(=O)N[C@@H](CC(=O)O)C(=O)O)[C@@H](C)O)[C@@H](C)O` [PPYNLNSHTQEYSKPEDTFD], the minimum inhibitory concentration (MIC) in experiment [35] was 4.47 µM (≈ 10.7 µg/mL).

(Values after DBAASP.)
